The text below walks through data of patent US20240336630A1, “MAP4K1 INHIBITORS” (Blueprint Medicines Corporation, priority 2021, published 2024).

For the experiment, the target named is T1, MAP4K1 (HPK1) (Homo sapiens, UniProt Q92918).
T1 construct: purchased Invitrogen
T1 sequence (Q92918 whole entry): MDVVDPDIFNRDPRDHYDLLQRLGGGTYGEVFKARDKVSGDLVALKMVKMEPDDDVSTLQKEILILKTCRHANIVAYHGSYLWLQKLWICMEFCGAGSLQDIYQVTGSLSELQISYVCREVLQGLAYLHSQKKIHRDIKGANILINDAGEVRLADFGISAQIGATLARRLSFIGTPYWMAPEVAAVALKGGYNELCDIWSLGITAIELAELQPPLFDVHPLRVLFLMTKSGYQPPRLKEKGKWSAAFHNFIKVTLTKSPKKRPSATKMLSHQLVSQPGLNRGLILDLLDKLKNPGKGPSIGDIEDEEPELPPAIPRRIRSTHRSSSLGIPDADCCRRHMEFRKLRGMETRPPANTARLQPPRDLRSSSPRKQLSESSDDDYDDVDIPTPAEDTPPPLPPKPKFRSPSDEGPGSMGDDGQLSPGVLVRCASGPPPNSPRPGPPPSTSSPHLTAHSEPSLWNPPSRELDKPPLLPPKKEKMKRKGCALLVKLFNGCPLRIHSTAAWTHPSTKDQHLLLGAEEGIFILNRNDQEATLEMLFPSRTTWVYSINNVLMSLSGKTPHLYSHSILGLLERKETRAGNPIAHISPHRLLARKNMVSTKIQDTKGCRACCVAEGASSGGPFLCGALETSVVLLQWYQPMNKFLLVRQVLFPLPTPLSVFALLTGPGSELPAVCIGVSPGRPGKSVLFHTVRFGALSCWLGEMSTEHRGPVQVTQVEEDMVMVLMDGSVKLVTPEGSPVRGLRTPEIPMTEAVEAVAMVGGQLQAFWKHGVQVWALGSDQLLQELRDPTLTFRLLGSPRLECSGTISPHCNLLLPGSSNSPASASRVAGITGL
Nature of the experiment: Inhibition of MAP4K1 biochemical enzymatic activity (EZReader 2 electrophoretic mobility shift). The following applies: HPK1 (Invitrogen), S6K2tide 1.5 μM, 120 min; ATP 26 μM or 1000 μM, not stated which for Table 3. From the text: MAP4K1 (HPK1) and relevant off-target enzymatic activity was monitored using the Perkin Elmer electrophoretic mobility shift technology platform—the EZReader 2. […] Within the linear, steady-state phase of the kinase enzymatic reaction, the mixed pool of phosphorylated (product) and non-phosphorylated (substrate) peptides was passed through the microfluidic system of the PerkinElmer EZ Reader 2, under an applied electric potential difference. The presence of the phosphate group on the product peptide provided a difference in mass and charge between that of the substrate peptide, resulting in a separation of the substrate and product pools in the sample (Perrin et al. 2010). As the product and substrate peptide mixture passes the lasers within the instrument, these pools are detected (λex=488 nm, λem=568 nm) and resolved as separate peaks. The ratio between these peaks reflects the activity of the compound at that concentration, in that well, under those conditions.
Inhibitors were dissolved in 100% DMSO at a stock concentration of 10 mM. A 100×, 10-point, 4-fold serial dilution of each inhibitor was created in 100% DMSO either manually or on a Hamilton STAR liquid handler, starting at a relevant concentration, usually 1 mM. A volume of 0.130 μL of each concentration was transferred to the relevant wells of a 384-well plate (Greiner 781 201) in duplicate using a TTPLabtech Mosquito nano-litre dispenser. Using a Multidrop Combi, the remaining constituents of the kinase reaction were added to the 130 nL of dosed compound as follows (see table below for final reaction details):
Enzyme activity assays at the ^APPKM for ATP or 1 mM ATP: In each well of a 384-well plate, 0.1-15 nM of untreated enzyme was incubated in a total of 13 μL of buffer (100 mM HEPES pH 7.5, 0.015% Brij 35, 10 mM MgCl2, 1 mM DTT) with 1.5 μM fluorescent peptide and 20-1000 μM ATP, at 25° C., for 60-180 minutes in the presence or absence of a dosed concentration series of compound (1% DMSO final concentration). The kinase reactions were stopped by the addition of 70 μl of Stop buffer (100 mM HEPES pH 7.5, 0.015% Brij 35, 35 mM EDTA and 0.2% of Coating Reagent 3 (Caliper Lifesciences)). The plates were read on a Caliper EZReader 2 as described above.
For orientation: Mobility shift assays separate free from complexed probe on a gel.
Turning to `CNc1ncc(C(C)(C)O)c2cc(Nc3ccnc(C(C)(C)C)n3)ncc12` [Compound 3], the IC50 (commonly the concentration that inhibits the measured activity by half) was determined as 23.1 nM.
`COc1ncc(C(C)(C)O)c2cc(Nc3ccnc(C(C)(C)C)n3)ncc12` [Compound 4]: the IC50 is 2.34 nM.
With `CCOc1ncc([C@@](C)(O)C2CC2)c2cc(Nc3ccc4c(n3)[C@@H](C)C(C)(C)OC4=O)ncc12` (single isomer, unassigned) [Compound 32] the figure was 15.5 nM; with `C[C@@H]1c2nc(Nc3cc4c([C@@](C)(O)C5CCC5)cnc(OC5CC5)c4cn3)ccc2C(=O)OC1(C)C` (single isomer, unassigned) [Compound 43], 6.72 nM; with `CC[C@@](C)(O)c1cnc(NC2CC2)c2cnc(Nc3ccc4c(n3)[C@@H](C)C(C)(C)OC4=O)cc12` (single isomer, unassigned) [Compound 29], 1.43 nM.
`COC[C@@](C)(O)c1cnc(OC2CC2)c2cnc(Nc3ccc4c(n3)[C@@H](C)[C@H](C)OC4=O)cc12` (single isomer, unassigned) [Compound 36]: the IC50 was 3.86 nM.
For the compound `COc1ncc(C(C)(C)O)c2cc(Nc3ccnc(N4CCC[C@@H]4C)n3)ncc12` [Compound 10], the IC50 came out at 1.19 nM.
Turning to `CC[C@@H](O)c1cnc(OC2CN(S(C)(=O)=O)C2)c2cnc(Nc3ccc4c(n3)[C@@H](C)C(C)(C)OC4=O)cc12` (single isomer, unassigned) [Compound 64], the half-maximal inhibitory concentration (IC50) amounted to 0.67 nM.
The value for `COc1ncc(C(C)(C)O)c2cc(Nc3cnc(C#N)c(N4CCC[C@@H]4C)n3)ncc12` [Compound 13] was 6.36 nM; that for `CC[C@@](C)(O)c1cnc(O[C@H](C)C[C@@H](C)S(C)(=O)=O)c2cnc(Nc3ccc4c(n3)[C@@H](C)C(C)(C)OC4=O)cc12` (single isomer, unassigned) [Compound 69] was 0.89 nM; that for `C[C@@H]1c2nc(Nc3cc4c([C@@](C)(O)C5CC5)cnc(OCC(F)(F)F)c4cn3)ccc2C(=O)OC1(C)C` (single isomer, unassigned) [Compound 54] was 16.9 nM.
Consider `C[C@@H]1c2nc(Nc3cc4c([C@@](C)(O)C(F)(F)F)cnc(OC5CC5)c4cn3)ccc2C(=O)OC1(C)C` (single isomer, unassigned) [Compound 50], for which the IC50 is 4.51 nM.
Consider `CC[C@](C)(O)c1cnc(OC2CC2)c2cnc(Nc3ccc4c(n3)C3(CC3)C(C)(C)OC4=O)cc12` (single isomer, unassigned) [Compound 41], for which the IC50 was found to be 6.55 nM.
As to `COc1ccc(C(C)(C)O)c2cc(Nc3ccnc(C(C)(C)F)n3)ncc12` [Compound 5], the half-inhibitory concentration (IC50) is 18.4 nM.
Turning to `CC1(C)Cc2nc(Nc3cc4c(C5(O)CCOCC5)cnc(OC5CC5)c4cn3)ccc2C(=O)O1` [Compound 42], the IC50 stood at 3.38 nM.
For `C[C@@H]1c2nc(Nc3cc4c(C(C)(O)C5CC5)cnc(OCC(F)F)c4cn3)ccc2C(=O)OC1(C)C` (some centres unmarked) [Compound 47], the 50% inhibitory concentration (IC50) amounted to 1.57 nM.
Take `CC1(C)CCc2nc(Nc3cc4c(C(C)(C)O)cnc(OC5CC5)c4cn3)ccc2C(=O)O1` [Compound 22]: the concentration for half-maximal inhibition (IC50) was found to be 23.6 nM.
With `CC(=O)N1CC(Oc2ncc(C(C)(C)O)c3cc(Nc4ccc5c(n4)[C@@H](C)[C@H](C)OC5=O)ncc23)C1` [Compound 45] the figure was 1.91 nM; with `C[C@@H]1OC(=O)c2ccc(Nc3cc4c(C(C)(C)O)cnc(OC5CN(S(C)(=O)=O)C5)c4cn3)nc2[C@H]1C` [Compound 57, (7S,8R)-2-((5-(2-Hydroxypropan-2-yl)-8-((1-(methylsulfonyl)azetidin-3-yl)oxy)-2,7-naphthyridin-3-yl)amino)-7,8-dimethyl-7,8-dihydro-5H-pyrano[4,3-b]pyridin-5-one], 0.2 nM.
In the case of `C[C@@H]1OC(=O)c2ccc(Nc3cc4c(C(C)(C)O)cnc(OCC5(F)CC5)c4cn3)nc2[C@H]1C` [Compound 37], the IC50 was 2.01 nM.
As to `COc1ncc(C(C)(C)O)c2cc(Nc3ccnc(N4CC[C@@H]4C)n3)ncc12` [Compound 9], the IC50 stood at 1.63 nM.
Take `C[C@@H]1c2nc(Nc3cc4c([C@@](C)(O)C5CCC5)cnc(OC5CC5)c4cn3)ccc2C(=O)OC1(C)C` (single isomer, unassigned) [Compound 44]: the IC50 stood at 1.53 nM.
As for `CC1(C)Cc2nc(Nc3cc4c(C(C)(O)c5ccccc5)cnc(OC5CC5)c4cn3)ccc2C(=O)O1` (centres unmarked) [Compound 46], the half-maximal inhibitory concentration (IC50) stood at 31.9 nM.
`COc1ncc(C(C)(C)O)c2cc(Nc3ccc4c(n3)CCOC4=O)ncc12` [Compound 8]: the half-maximal inhibitory concentration (IC50) worked out at 4.73 nM.
With `CC[C@@](C)(O)c1cnc(OCC(F)(F)F)c2cnc(Nc3ccc4c(n3)[C@@H](C)C(C)(C)OC4=O)cc12` (single isomer, unassigned) [Compound 52] the figure was 23.2 nM.
For the compound `CC[C@H](O)c1cnc(OC2CN(S(C)(=O)=O)C2)c2cnc(Nc3ccc4c(n3)[C@@H](C)[C@H](C)OC4=O)cc12` (single isomer, unassigned) [Compound 59], the IC50 was 12.9 nM.
`COc1ncc(C(C)(C)O)c2cc(Nc3ccnc(C(C)(C)F)n3)ncc12` [Compound 6]: the 50% inhibitory concentration (IC50) stood at 9.23 nM.
With `CC[C@@](C)(O)c1cnc(OC2CC2)c2cnc(Nc3ccc4c(n3)[C@@H](C)C(C)(C)OC4=O)cc12` (single isomer, unassigned) [Compound 30] the figure was 2.38 nM; with `CC[C@@](C)(O)c1cnc(NC2CC2)c2cnc(Nc3ccc4c(n3)[C@@H](C)C(C)(C)OC4=O)cc12` (single isomer, unassigned) [Compound 28], 3.03 nM.
The value for `C[C@@H]1c2nc(Nc3cc4c([C@@](C)(O)C5CC5)cnc(OCC(F)(F)F)c4cn3)ccc2C(=O)OC1(C)C` (single isomer, unassigned) [Compound 55] was 15.9 nM; that for `CC[C@@](C)(O)c1cnc(O[C@H]2C[C@@H](S(C)(=O)=O)C2)c2cnc(Nc3ccc4c(n3)[C@@H](C)C(C)(C)OC4=O)cc12` (single isomer, unassigned) [Compound 66] was 1.74 nM; that for `C[C@@H]1OC(=O)c2ccc(Nc3cc4c(C(C)(C)O)cnc(O[C@H]5C[C@@H](S(C)(=O)=O)C5)c4cn3)nc2[C@H]1C` [Compound 56] was 0.45 nM.
For the compound `CC[C@@](C)(O)c1cnc(OCC(F)(F)F)c2cnc(Nc3ccc4c(n3)[C@@H](C)C(C)(C)OC4=O)cc12` (single isomer, unassigned) [Compound 53], the IC50 was determined as 3.75 nM.
Turning to `CC[C@@H](O)c1cnc(OC2CN(S(C)(=O)=O)C2)c2cnc(Nc3ccc4c(n3)[C@@H](C)C(C)(C)OC4=O)cc12` (single isomer, unassigned) [Compound 63], the IC50 amounted to 2.94 nM.
For `COc1ncc(C(C)(C)O)c2cc(Nc3cnc(C#N)c(C(C)C)n3)ncc12` [Compound 7], the 50% inhibitory concentration (IC50) was determined as 17.5 nM.
As to `COC[C@@](C)(O)c1cnc(OC2CC2)c2cnc(Nc3ccc4c(n3)[C@@H](C)[C@H](C)OC4=O)cc12` (single isomer, unassigned) [Compound 35], the 50% inhibitory concentration (IC50) came out at 67.3 nM.
`C[C@@H]1c2nc(Nc3cc4c([C@@](C)(O)C(F)(F)F)cnc(OC5CC5)c4cn3)ccc2C(=O)OC1(C)C` (single isomer, unassigned) [Compound 51]: the IC50 is 12.3 nM.
For `CCOc1ncc([C@@](C)(O)C2CC2)c2cc(Nc3ccc4c(n3)[C@@H](C)C(C)(C)OC4=O)ncc12` (single isomer, unassigned) [Compound 33], the IC50 was 0.56 nM.
Regarding `CC[C@@](C)(O)c1cnc(O[C@H](C)C[C@@H](C)S(C)(=O)=O)c2cnc(Nc3ccc4c(n3)[C@@H](C)C(C)(C)OC4=O)cc12` (single isomer, unassigned) [Compound 70], the half-inhibitory concentration (IC50) worked out at 0.49 nM.
`CC[C@@](C)(O)c1cnc(O[C@H](C)C[C@@H](C)S(C)(=O)=O)c2cnc(Nc3ccc4c(n3)[C@@H](C)[C@H](C)OC4=O)cc12` (single isomer, unassigned) [Compound 68]: the IC50 was determined as 0.41 nM.
As to `CC[C@@](C)(O)c1cnc(O[C@H](C)C[C@@H](C)S(C)(=O)=O)c2cnc(Nc3ccc4c(n3)[C@@H](C)[C@H](C)OC4=O)cc12` (single isomer, unassigned) [Compound 67], the IC50 is 0.66 nM.
With `CC[C@@](C)(O)c1cnc(O[C@H]2C[C@@H](S(C)(=O)=O)C2)c2cnc(Nc3ccc4c(n3)[C@@H](C)C(C)(C)OC4=O)cc12` (single isomer, unassigned) [Compound 65], the IC50 came to 0.39 nM.
On to `CC[C@@](C)(O)c1cnc(O[C@H]2C[C@@H](S(C)(=O)=O)C2)c2cnc(Nc3ccc4c(n3)[C@@H](C)[C@H](C)OC4=O)cc12` (single isomer, unassigned) [Compound 62], for which the half-maximal inhibitory concentration (IC50) was 1.66 nM.
Regarding `CC[C@H](O)c1cnc(OC2CN(S(C)(=O)=O)C2)c2cnc(Nc3ccc4c(n3)[C@@H](C)[C@H](C)OC4=O)cc12` (single isomer, unassigned) [Compound 58], the IC50 is 2.52 nM.
